The record followed here is ChEMBL document CHEMBL5113373, “Tryptophan derived natural marine alkaloids and synthetic derivatives as promising antimicrobial agents” (Eur J Med Chem, 2021).

≈ marks a conversion by molar mass, not a printed value.

Assay [1] relates to Staphylococcus aureus. The assay is described as follows: Antibacterial activity against Staphylococcus aureus ATCC 6538 assessed as bacterial growth inhibition incubated for 24 hrs by agar diffusion method. Type of assay: functional.
The test system of assay [2] is Candida albicans. The experiment in a line: Antifungal activity against Candida albicans ATCC 2091 assessed as fungal growth inhibition incubated for 24 hrs by agar diffusion method. Type of assay: functional.
A further assay has as its system Pseudomonas aeruginosa. The assay is described as follows: Antibacterial activity against Pseudomonas aeruginosa ATCC 9027 assessed as bacterial growth inhibition incubated for 24 hrs by agar diffusion method. Type of assay: functional. For orientation: In agar diffusion tests the substance spreads into inoculated agar from a disc or well.
The subject of the next assay is Aspergillus niger. The experiment in a line: Antifungal activity against Aspergillus niger assessed as fungal growth inhibition. Type of assay: functional, organism-based.
Assay [3] relates to Trichophyton mentagrophytes. The assay is described as follows: Antifungal activity against Trichophyton mentagrophytes assessed as fungal growth inhibition. Type of assay: functional, organism-based.
In the next assay the test system is Cryptococcus neoformans. The assay is described as follows: Antifungal activity against Cryptococcus neoformans assessed as fungal growth inhibition. Type of assay: functional, organism-based.
The test system of assay [4] is Candida albicans. The experiment in a line: Antifungal activity against Candida albicans assessed as fungal growth inhibition. Type of assay: functional, organism-based.
The test system of a further assay is Vibrio natriegens. The experiment in a line: Antimicrobial activity against Vibrio natriegens ATCC 14048 assessed as microbial growth inhibition incubated for 48 hrs by spectrophotometry. Type of assay: functional.
Assay [5] relates to Acinetobacter baumannii. The experiment in a line: Antibiofilm activity against Acinetobacter baumannii ATCC 19606 assessed as inhibition of biofilm formation at 100 uM incubated for 24 hrs by crystal violet method relative to control. Type of assay: functional. More on the design: scale not given: the % may be the effect or the level left.
Another assay concerns Escherichia coli. The assay is described as follows: Antimicrobial activity against Escherichia coli assessed as microbial growth inhibition by microdilution method. Type of assay: functional.
The subject of assay [6] is Staphylococcus aureus. The assay is described as follows: Antimicrobial activity against methicillin-resistant Staphylococcus aureus assessed as microbial growth inhibition by broth microdilution method. Type of assay: functional. (Broth dilution looks for growth in wells or tubes with falling amounts of substance.)
The subject of assay [7] is Candida albicans. The experiment in a line: Antimicrobial activity against Candida albicans assessed as microbial growth inhibition by microdilution method. Type of assay: functional.
The test system of assay [8] is Acinetobacter baumannii. The experiment in a line: Antibacterial activity against Acinetobacter baumannii ATCC 19606 assessed as bacterial growth inhibition incubated for 24 hrs by broth micro dilution method. Type of assay: functional.
For assay [9], the system named is Acinetobacter baumannii. The assay is described as follows: Antibacterial activity against Acinetobacter baumannii ATCC 15122 assessed as bacterial growth inhibition incubated for 24 hrs by broth micro dilution method. Type of assay: functional.
A further assay relates to Fusarium oxysporum. The assay is described as follows: Antifungal activity against Fusarium oxysporum Momordicae assessed as fungal growth inhibition incubated for 3 days by broth micro dilution method. Type of assay: functional. Conditions: 72 h, time 3 day.
The next assay deals with Klebsiella pneumoniae. The assay is described as follows: Antibacterial activity against Klebsiella pneumoniae ATCC 14578 assessed as bacterial growth inhibition incubated for 24 hrs by broth micro dilution method. Type of assay: functional.
Assay [10] has as its system Staphylococcus aureus. The assay is described as follows: Antibacterial activity against Staphylococcus aureus ATCC 16339 assessed as bacterial growth inhibition incubated for 24 hrs by broth micro dilution method. Type of assay: functional.
The subject of the next assay is Hepatitis C virus. The assay is described as follows: Antiviral activity against HCV J8CC infected in human Huh7.5 cells assessed as viral growth inhibition incubated for 48 hrs by light microscopy. Type of assay: functional, organism-based, Hepacivirus hominis. To be noted: Huh7.5, 48 h.
Assay [11] concerns Mycobacterium tuberculosis. The assay is described as follows: Antibacterial activity against […] assessed as bacterial growth inhibition. Type of assay: functional.
In assay [12] the test system is Micrococcus luteus. The experiment in a line: Antimicrobial activity against Sarcina lutea assessed as microbial growth inhibition. Type of assay: functional.
A further assay deals with Corynebacterium xerosis. The assay is described as follows: Antimicrobial activity against Corynebacterium xerosis assessed as microbial growth inhibition. Type of assay: functional.
Another assay has as its system Pyricularia oryzae. The experiment in a line: Antifungal activity against Pyricularia oryzae assessed as fungal growth inhibition incubated for 16 hrs by inverted microscopy. Type of assay: functional.
A further assay concerns Mycolicibacterium phlei. The assay is described as follows: Antibacterial activity against Mycobacterium phlei assessed as bacterial growth inhibition. Type of assay: functional, organism-based.
In a further assay the test system is Saccharomyces cerevisiae. The experiment in a line: Antifungal activity against Saccharomyces cerevisiae assessed as fungal growth inhibition. Type of assay: functional, organism-based.
Assay [13] relates to Micrococcus luteus. The experiment in a line: Antibacterial activity against Micrococcus luteus assessed as bacterial growth inhibition. Type of assay: functional, organism-based.
Assay [14] deals with Candida albicans. The assay is described as follows: Antimicrobial activity against Candida albicans assessed as microbial growth inhibition measured after 24 hrs by agar dilution method. Type of assay: functional.

Regarding `COc1ccc2[nH]c3cnc(-c4c[nH]c5cc(O)ccc45)c(C(=O)O)c3c2c1`, the “diameter of the inhibition zone (DIZ)” value was found to be 10 mm with Staphylococcus aureus [1], 9 mm with Candida albicans [2] and 7 mm in the assay on Pseudomonas aeruginosa.

For `O=C1NC(C(=O)c2c[nH]c3ccc(O)cc23)c2c(O)ccc3[nH]cc(c23)C1=O` (configuration not stated), the IC50 in the assay with Aspergillus niger was determined as 21.3 µM; in [3], 42.6 µM.

As to `Cn1cnc(C(=O)c2nc3c4c5c(nccc5c(C(C[N+](C)(C)C)c5c[nH]c6cc(Br)ccc56)c3o2)C=CN4)c1` (configuration not stated), in the assay on Aspergillus niger, the MIC was 26.8 µM.

As to `Cn1cc(C(=O)c2nc(C(=O)O)cc3c2[nH]c2ccc(O)cc23)[n+](C)c1`, the IC50 with Aspergillus niger was 22.8 µM; with Cryptococcus neoformans, 11.4 µM; in the assay on Candida albicans [4], 45.7 µM; in assay [3], 45.7 µM.

With `C/N=C1\NC(Cc2c[nH]c3cc(Br)c(Br)cc23)C(=O)N1C` (configuration not stated), the MIC with Vibrio natriegens turned out to be 2.4 µM (≈ 0.994 µg/mL).

As to `C=CC(C)(C)[C@@]12CCN(C)C1=Nc1cc(Br)ccc12` [FLUSTRAMINE C], the Activity in the assay on Acinetobacter baumannii [5] stood at 30%.

Turning to `O=C1Nc2ccccc2[C@@]1(O)Cc1cncc(Cc2c[nH]c3ccccc23)n1`, the MIC with Escherichia coli came out at 27 µM; in the assay on Staphylococcus aureus [6], 32.4 µM (≈ 12 µg/mL); in the assay with Candida albicans [7], 32.4 µM.

On to `O=C1N[C@]2(CO)c3[nH]c4ccccc4c3C[C@@H]1n1c2nc2ccccc2c1=O`, for which the MIC in the assay on Acinetobacter baumannii [8] stood at 16.8 µM (≈ 6.26 µg/mL); in the assay with Acinetobacter baumannii [9], 16.8 µM (≈ 6.26 µg/mL); in the assay with Fusarium oxysporum, 4 µM (≈ 1.49 µg/mL); in the assay with Klebsiella pneumoniae, 16.8 µM (≈ 6.26 µg/mL); in the assay on Staphylococcus aureus [10], 16.8 µM (≈ 6.26 µg/mL).

Regarding `Brc1ccc2c(-c3c[nH]c(-c4c[nH]c5ccccc45)n3)c[nH]c2c1` [NORTOPSENTIN C], in the assay with Candida albicans [4], the IC50 came out at 6.8 µM.

For `O=C(O)c1c(-c2c[nH]c3cc(O)ccc23)ncc2[nH]c3ccc(O)cc3c12`, the “diameter of the inhibition zone (DIZ)” value with Staphylococcus aureus [1] worked out at 10 mm; in the assay on Candida albicans [2] it was 9 mm; in the assay on Pseudomonas aeruginosa, 7 mm.

In the case of `C[N+](C)(C)CC(c1c[nH]c2cc(Br)ccc12)c1c2ccnc3c2c(c2nc(CS(=O)(=O)[O-])oc12)NC=C3` (configuration not stated), the MIC in the assay on Aspergillus niger came out at 27.5 µM (≈ 16 µg/mL).

As for `CC1(C)C(=O)N2c3ccccc3[C@@]3(C[C@H]4n5c(nc6ccccc6c5=O)C(=O)C(C)(C)[C@@]4(O)O3)[C@@H]2N1S(C)(=O)=O`, in the assay with Hepatitis C virus, the EC50 came to 110 µM.

On to `C=CC(C)(C)c1[nH]c2ccccc2c1/C=c1\[nH]c(=O)c2n(c1=O)CCC=2C1=c2c(=O)[nH]/c(=C\c3c(C(C)(C)C=C)[nH]c4ccccc34)c(=O)n2CC1`, for which, in [11], the MIC turned out to be 9 µM (≈ 6.24 µg/mL).

For `O=C(O)[C@@H]1Cc2c[nH]c3ccc4oc5nc6ccc(O)cc6c-5c(c4c23)N1`, the IC50 in the assay on Cryptococcus neoformans stood at 11.1 µM; in the assay with Candida albicans [4] it was 2.8 µM.

Regarding `O=C1N=C(C(=O)c2c[nH]c3ccc(Br)cc23)N/C1=C\c1c[nH]c2ccccc12`, the MIC with Micrococcus luteus [12] and in the assay with Corynebacterium xerosis was 36.9 µM (≈ 16 µg/mL) each time.

Regarding `CSc1c(-c2c(-c3c[nH]c4ccc(O)cc34)c(=O)n3c4ccc(O)cc4c4ccnc2c43)[n+](C)cn1C`, the IC50 in the assay on Cryptococcus neoformans and in the assay with Candida albicans [4] was 7.9 µM throughout. Moreover, the MIC in assay [3] was 31.5 µM.

Turning to `NC(=O)c1c(-c2c[nH]c3cc(O)ccc23)ncc2[nH]c3ccc(O)cc3c12`, the “diameter of the inhibition zone (DIZ)” value in the assay with Staphylococcus aureus [1] was found to be 10 mm; with Candida albicans [2], 9 mm; with Pseudomonas aeruginosa, 7 mm.

With `Oc1ccc2nc3oc4ccc5[nH]cc6cc[nH]c(c-3c2c1)c4c65`, the IC50 amounted to 12.8 µM in the assay with Aspergillus niger, 6.4 µM with Cryptococcus neoformans, 3.2 µM with Candida albicans [4] and 51.1 µM in assay [3].

As to `CC(=O)[C@H]1N=C(c2c[nH]c3ccc(O)cc23)c2c(O)ccc3[nH]cc(c23)[C@H]1O`, the IC50 in the assay on Aspergillus niger came out at 85.2 µM.

For the molecule `CC(C)=CCn1cc(CC2NC(=O)C(C(C)C)NC2=O)c2ccccc21` (configuration not stated), in the assay with Pyricularia oryzae, the MIC was 0.36 µM (≈ 0.127 µg/mL).

For `C=CC(C)(C)c1c(CCNC)c2ccc(Br)cc2n1CC=C(C)C`, the IC50 in the assay on Mycolicibacterium phlei is 7.7 µM; with Saccharomyces cerevisiae, 17.9 µM; in the assay with Micrococcus luteus [13] it was 5.9 µM.

As for `O=C1N[C@H]2c3nc4ccccc4c(=O)n3[C@H]1C[C@@]1(O)c3ccccc3N3C(=O)C4(CC4)N2[C@@H]31`, in the assay on Candida albicans [14], the MIC amounted to 22.6 µM (≈ 9.98 µg/mL).

As a reminder, the IC50 is the concentration that gives 50% inhibition. What is called MIC is the least concentration at which growth counts as inhibited. For orientation: EC50 means the concentration needed to bring the measured effect to its halfway point.
